# Tests used:
# [1] = test system: Erythropoietin secretion, Hep-3B cells; assay: Cellular assay: EPO secretion in Hep-3B cells; format: cell-based; conditions: Homo sapiens, Hep3B, 100 μM compound, 24 hours, percent of EPO secretion relative to assay control compound 7-[(4-Chloro-phenyl)-(5-methyl-isoxazol-3-ylamino)-methyl]-quinolin-8-ol, read-out: Cellular % EPO Stimulation
# Protocol: Hep-3B cells (ATCC, Manassas, Va.) were plated in 96-well plates at 20,000 cells per well in 100 μl of DMEM containing 10% fetal bovine serum, 1% non-essential amino acids, 50 IU/mL of penicillin and 50 μg/mL of streptomycin (all cell culture reagents from Invitrogen, Carlsbad, Calif.). Twenty-four hours after plating, compounds were added and incubated for an additional 24 hours. All compounds were tested with final compound concentrations at 100 μM. Fifty microliters of the supernatant was then transferred to a human Hypoxia assay kit (Meso-Scale Discovery, Gaithersburg, Md.). Erythropoietin in the supernatant was detected according to the manufacturer's instructions as follows. EPO detection plates were blocked with 3% BSA in PBS overnight and 50 μl of the supernatant was incubated at room temperature in an orbital shaker for 2 h. Twenty-five microliters of 0.5 μg/ml anti-EPO detection antibody was added for 2 hours at room temperature in an orbital shaker. After 3 washes in PBS, 150 μl of 1× read buffer is added and the plate is then read on the MSD SECTOR instrument. Data was analyzed by determining the percent of EPO secretion in the presence of 100 μM compound relative to an assay control compound, 7-[(4-Chloro-phenyl)-(5-methyl-isoxazol-3-ylamino)-methyl]-quinolin-8-ol.
# [2] = molecular target: PHD2181-417 (Homo sapiens (Human), UniProt Q9GZT9); assay: PHD enzymatic assay ([14C]-succinic acid production); format: biochemical; conditions: purified PHD2181-417, HIF-1α peptide substrate, 30 min pre-incubation; average of results
# Protocol: Expression and Purification of PHD2181-417
# The human PHD2 expression construct containing amino acids 181-417 of GenBank Accession ID NM_022051 was cloned into a pBAD vector (Invitrogen), incorporating both an N-terminal histidine tag and a Smt3-tag, both of which are cleaved by Ulp1. Protein production was achieved by expression in BL21 cells grown in Terrific Broth containing 100 μg/ml ampicillin. Cell cultures were inoculated at 37° C. and grown to an OD600 of 0.8. Cultures were induced with 0.1% arabinose and grown overnight at 20° C. with continuous shaking at 225 rpm. Cells were then harvested by centrifugation and stored at −80° C. Cell pellets were suspended in Buffer A (50 mM Tris-HCl pH 7.2, 100 mM NaCl, 100 mM L-arginine, 1 mM TCEP, 0.05% (w/v) NP-40, 50 mM imidazole) followed by the addition of lysozyme and benzonase. Cells were lysed by sonication and the lysate was cleared by centrifugation (15,000 rpm, 90 min, 4° C.). The protein was purified by nickel affinity chromatography using a HisTrap Crude FF column (GE Healthcare). Samples were eluted in Buffer A with a 50-200 mM imidazole gradient. Cleavage of the Smt tag with Ulp1 protease was achieved via overnight incubation with dialyzing against Buffer A. The PHD2181-417 sample was then passed over a second HisTrap Crude FF column (GE Healthcare) to remove uncleaved protein. The flow-through was then dialyzed into 50 mM MES pH 6.0, 1 mM TCEP, 5 mM NaCl for ion exchange chromatography on a HiTrap SP Cation Exchange column (GE Healthcare). The PHD2181-417 protein was eluted with a 0-0.2 M NaCl gradient. Fractions were pooled for further purification by size exclusion chromatography over a Superdex 75 Size Exclusion Column (GE Healthcare). Final protein was concentrated to 4 mg/ml and dialyzed in 10 mM PIPES pH 7.0, 100 mM NaCl, 0.5 mM TCEP.
# (10 μM, California Peptide Research Inc., Napa, Calif.), and [5-^14C]-2-oxoglutaric acid (50 mCi/mmol, Moravek Chemicals, Brea, Calif.) in reaction buffer (40 mM Tris-HCl, pH 7.5, 0.4 mg/ml catalase, 0.5 mM DTT, 1 mM ascorbate) for 10 minutes. Compounds were pre-incubated for 30 min before starting the reaction (all test compounds were dissolved at 10 mM in 100% DMSO (w/v) and were tested with final compound concentrations at 100 μM in 1% DMSO (w/v)). The reaction was stopped by addition of 50 μl of 70 mM H3PO4 and 50 μl of 500 mM NaH2PO4, pH 3.2. Detection of [^14C]-succinic acid was achieved by separating from [5-^14C]-2-oxoglutaric acid by incubating the reaction mixture with 100 μl of 0.16 M DNP prepared in 30% perchloric acid. Next, 50 μl of unlabeled 20 mM 2-oxoglutaric acid/20 mM succinic acid, serving as carrier for the radioactivity, was added to the mixture, and was allowed to proceed for 30 minutes at room temperature. The reaction was then incubated with 50 μl of 1 M 2-oxoglutaric acid for 30 additional minutes at room temperature to precipitate the excess DNP. The reaction was then centrifuged at 2800×g for 10 minutes at room temperature to separate [^14C]-succinic acid in the supernatant from the precipitated [^14C]-dinitrophenylhydrazone. Fractions of the supernatant (400 μI) were counted using a beta counter (Beckman Coulter, Fullerton, Calif.). Inhibition of PHD2181-417 activity was measured as a decrease in succinic acid production. The IC50 values were estimated by fitting the data to a three-parameter logistic function using GraphPad Prism, version 4.02 (Graph Pad Software, San Diego, Calif.).
# PHD2181-417, sequence (Q9GZT9 181-417): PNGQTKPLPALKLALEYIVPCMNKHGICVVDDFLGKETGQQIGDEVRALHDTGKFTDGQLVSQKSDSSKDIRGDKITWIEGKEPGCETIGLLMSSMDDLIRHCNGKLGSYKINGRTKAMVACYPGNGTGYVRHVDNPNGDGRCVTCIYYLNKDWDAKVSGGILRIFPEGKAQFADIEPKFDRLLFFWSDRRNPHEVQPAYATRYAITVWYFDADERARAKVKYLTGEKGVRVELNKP
Structure (SMILES),activation at 100 µM [1] [%],Enzyme pIC50 [2]
"CCCCN(CCCC)c1nc(-n2cc(C(=O)O)cn2)nc2cc(F)c(Oc3c(C)cccc3C)cc12 [Example 11, 1-[6-(2,6-Dimethyl-phenoxy)-4-dibutylamino-7-fluoro-quinazolin-2-yl]-1H-pyrazole-4-carboxylic acid]",9,7.1
"CCCN(CCC)c1nc(-n2cc(C(=O)O)cn2)nc2cc(F)c(Oc3c(C)cccc3C)cc12 [Example 12, 1-[6-(2,6-Dimethyl-phenoxy)-4-dipropylamino-7-fluoro-quinazolin-2-yl]-1H-pyrazole-4-carboxylic acid]",9,7.4
"Cc1cccc(C)c1Oc1cc2c(NCC3CCCCC3)nc(-n3cc(C(=O)O)cn3)nc2cc1F [Example 13, 1-(4-((Cyclohexylmethyl)amino)-6-(2,6-dimethylphenoxy)-7-fluoroquinazolin-2-yl)-1H-pyrazole-4-carboxylic acid]",10,6.9
"Cc1cccc(C)c1Oc1cc2c(NC3CC3)nc(-n3cc(C(=O)O)cn3)nc2cc1F [Example 14, 1-((4-Cyclopropylamino)-6-(2,6-dimethylphenoxy)-7-fluoroquinazolin-2-yl)-1H-pyrazole-4-carboxylic acid]",86,7.1
"Cc1cccc(C)c1Oc1cc2c(NC3CCOCC3)nc(-n3cc(C(=O)O)cn3)nc2cc1F [Example 16, 1-(6-(2,6-Dimethylphenoxy)-7-fluoro-4-((tetrahydro-2H-pyran-4-yl)amino)quinazolin-2-yl)-1H-pyrazole-4-carboxylic acid]",71,7.1
"Cc1cccc(C)c1Oc1cc2c(N3CCOCC3)nc(-n3cc(C(=O)O)cn3)nc2cc1F [Example 20, 1-(6-(2,6-Dimethylphenoxy)-7-fluoro-4-morpholinoquinazolin-2-yl)-1H-pyrazole-4-carboxylic acid]",54,7.0
"CNc1nc(-n2cc(C(=O)O)cn2)nc2ccc(C3CCCCC3)cc12 [Example 22, 1-(6-Cyclohexyl-4-methylamino-quinazolin-2-yl)-1H-pyrazole-4-carboxylic acid]",48,7.1
"Nc1nc(-n2cc(C(=O)O)cn2)nc2ccc(C3CCCCC3)cc12 [Example 24, 1-(4-Amino-6-cyclohexylquinazolin-2-yl)-1H-pyrazole-4-carboxylic acid]",36,7.5
"O=C(O)c1cnn(-c2nc(N3CCCC3)c3cc(C4CCCCC4)ccc3n2)c1 [Example 25, 1-(6-Cyclohexyl-4-(pyrrolidin-1-yl)quinazolin-2-yl)-1H-pyrazole-4-carboxylic acid]",39,6.4
"O=C(O)c1cnn(-c2nc(N3CCCCC3)c3cc(C4CCCCC4)ccc3n2)c1 [Example 26, 1-(6-Cyclohexyl-4-(piperidin-1-yl)quinazolin-2-yl)-1H-pyrazole-4-carboxylic acid]",20,7.1
"CCN(CC)c1nc(-n2cc(C(=O)O)cn2)nc2ccc(C3CCCCC3)cc12 [Example 27, 1-(6-Cyclohexyl-4-(diethylamino)quinazolin-2-yl)-1H-pyrazole-4-carboxylic acid]",45,7.3
"O=C(O)c1cnn(-c2nc(Nc3ccccc3)c3cc(C4CCCCC4)ccc3n2)c1 [Example 28, 1-(6-Cyclohexyl-4-(phenylamino)quinazolin-2-yl)-1H-pyrazole-4-carboxylic acid]",31,7.3
"O=C(O)c1cnn(-c2nc(NC3CC3)c3cc(C4CCCCC4)ccc3n2)c1 [Example 32, 1-(6-Cyclohexyl-4-(cyclopropylamino)quinazolin-2-yl)-1H-pyrazole-4-carboxylic acid]",49,6.7
"O=C(O)c1cnn(-c2nc(N3CCOCC3)c3cc(C4CCCCC4)ccc3n2)c1 [Example 33, 1-(6-Cyclohexyl-4-morpholinoquinazolin-2-yl)-1H-pyrazole-4-carboxylic acid]",36,6.8
"O=C(O)c1cnn(-c2nc(N3CCSCC3)c3cc(C4CCCCC4)ccc3n2)c1 [Example 34, 1-(6-Cyclohexyl-4-thiomorpholinoquinazolin-2-yl)-1H-pyrazole-4-carboxylic acid]",20,6.9
"N#CNc1nc(-n2cc(C(=O)O)cn2)nc2ccc(C3CCCCC3)cc12 [Example 35, 1-(4-Cyanamido-6-cyclohexylquinazolin-2-yl)-1H-pyrazole-4-carboxylic acid]",67,7.2
"O=C(O)c1cnn(-c2nc(N3CCCCCC3)c3cc(C4CCCCC4)ccc3n2)c1 [Example 37, 1-(4-(Azepan-1-yl)-6-cyclohexylquinazolin-2-yl)-1H-pyrazole-4-carboxylic acid]",17,7.1
"CN(C)c1nc(-n2cc(C(=O)O)cn2)nc2ccc(C3CCCCC3)cc12 [Example 38, 1-(6-Cyclohexyl-4-(dimethylamino)quinazolin-2-yl)-1H-pyrazole-4-carboxylic acid]",61,7.2
"CN(C)c1nc(-n2cc(C(=O)O)cn2)nc2ccc(-c3ccccc3)cc12 [Example 41, 1-(4-(Dimethylamino)-6-phenylquinazolin-2-yl)-1H-pyrazole-4-carboxylic acid]",43,7.2
"CCN(C)c1nc(-n2cc(C(=O)O)cn2)nc2ccc(-c3ccccc3)cc12 [Example 42, 1-(4-(Ethyl(methyl)amino)-6-phenylquinazolin-2-yl)-1H-pyrazole-4-carboxylic acid]",56,7.3
"O=C(O)c1cnn(-c2nc(N3CCCCC3)c3cc(-c4ccccc4)ccc3n2)c1 [Example 45, 1-(6-Phenyl-4-(piperidin-1-yl)quinazolin-2-yl)-1H-pyrazole-4-carboxylic acid]",8,7.2
"CCN(CC)c1nc(-n2cc(C(=O)O)cn2)nc2ccc(-c3ccccc3)cc12 [Example 46, 1-(4-(Diethylamino)-6-phenylquinazolin-2-yl)-1H-pyrazole-4-carboxylic acid]",26,7.4
"O=C(O)c1cnn(-c2nc(N3CCSCC3)c3cc(-c4ccccc4)ccc3n2)c1 [Example 54, 1-(6-Phenyl-4-thiomorpholinoquinazolin-2-yl)-1H-pyrazole-4-carboxylic acid]",25,6.8

# Reference: patent US10246442B2, “4-Aminoquinazolin compounds as prolyl hydroxylase inhibitors” (JANSSEN PHARMACEUTICA NV, priority 2011, dated 2019)
